# According to patent US10800758B2, “Pyrimidine compound” (OTSUKA PHARMACEUTICAL CO., LTD., priority 2017, dated 2020):
# Experiments:
# Type in all cases: in vivo
# ICR mice [1] = test: Maximal electroshock seizure (MES) model; settings: Mus musculus; male ICR mice, 30 mg/kg oral, electrical stimulation (30 mA, 100 Hz, 0.2 second) 1 hour after administration; read-out: rate of seizure suppression (tonic hindlimb extension seizure)
# Method: This test is performed to evaluate the anticonvulsant activity of the compound. The mouse model used in this test is a phenotype model of generalized tonic-clonic seizure and secondary generalized partial seizure. This test was performed in accordance with the report of AJ Hill et al (Br J Pharmacol. 2012 December; 167(8): 1629-42. Cannabidivarin is anticonvulsant in mouse and rat, Hill A J, et al.).
# The test compound was suspended in 5% gum arabic/distilled water (w/v), and administered by forced oral administration to male ICR mice (Japan SLC, Inc., 5 to 6 weeks old, 8 per group) at a dose of 30 mg/kg. After one hour of the oral administration of the test compound, the mice were stimulated by an application of electrical current (30 mA, 100 Hz, 0.2 second) through auricular electrodes using an electroconvulsive device (UGO BASILE SRL). Then, the incidence of tonic hindlimb extension seizure was recorded. In this test, tonic hindlimb extension seizures were induced in all mice of the solvent administration group, but the rate of seizure suppression was 75% or more with the example compounds 1, 2, 3, 5, 8, 10, 12, 13, 14, 16, 18, 22, 26, 28, 30, 31, 38, 42, 47, 48 and 54, and the suppression rate was 50% or more with the example compounds 4, 6, 9, 11, 23, 41 and 45.
# DBA/2 mice = test: Audiogenic seizure model; settings: Mus musculus; male and female DBA/2 mice, 30 mg/kg oral, auditory stimulation 1 hour after administration; read-out: Seizure suppression rate (%)
# Method: The animal model used in this test is a phenotype model for partial seizure (including secondary generalized seizure) and generalized tonic-clonic seizure, and has high clinical predictability. This test was performed in accordance with the report of De Sarro et al (Br J Pharmacol. 1988 February; 93(2): 247-56. Anticonvulsant effects of some calcium entry blockers in DBA/2 mice. De Sarro G B, Meldrum B S, Nistico G.).
# In this test example, the example compounds shown in Table 3 below were used as test compounds. The following compound (compound of Example 5 of WO 2004/009559), which is the most similar compound when the substituent position is taken into consideration, was used as a comparative example compound.
# The test compounds were suspended in 5% gum arabic/distilled water (w/v), and administered by forced oral administration to male and female DBA/2 mice (Japan SLC, Inc., 3 weeks old, 8 per group) at a dose of 30 mg/kg. After one hour of the oral administration of the test compound, each mouse was placed in a transparent acrylic cylinder 30 cm high and 23 cm in diameter, and 30 seconds were allowed for habituation. Then, they were exposed to auditory stimulation (12.6 kHz, 100-110 dB) for 1 minute or until a tonic seizure occurred.
# The seizure response was assessed using the following scale, 0: no seizure, 1: wild running, 2: clonic seizure, 3: tonic seizure and 4: respiratory arrest. The maximum response was recorded as the seizure severity score.
# The seizure suppression rate for each compound administration group was calculated according to the following formula.
# ICR mice [2] = test: Subcutaneous pentylenetetrazole (scPTZ) model; settings: Mus musculus; male ICR mice, 30 mg/kg oral, 85 mg/kg pentylenetetrazole s.c. after 1 hour, evaluated for 30 minutes; read-out: rate of suppression against clonic convulsions
# Method: This test is performed to evaluate the anticonvulsant activity of the compound as in Test Example 2. Unlike the phenotype of Test Example 2, the animal model used in this test is a phenotype model of generalized absence seizure and myoclonic seizure.
# The test compound was suspended in 5% gum arabic/distilled water (w/v), and administered by forced oral administration to male ICR mice (Japan SLC, Inc., 5 to 6 weeks old, 10 per group) at a dose of 30 mg/kg. After 1 hour, 85 mg/kg of pentylenetetrazole dissolved in saline was administered subcutaneously, and the occurrence of clonic convulsions was evaluated for 30 minutes.
structure (smiles),measurement,setting,value
O=C1CCN(c2cnc(Oc3cccc(C(F)(F)F)c3)nc2)C(=O)N1 [Example 9],responders at 30 mg/kg,ICR mice [1],≥ 50%
same,inhibition in vivo at 30 mg/kg,DBA/2 mice,94%
O=C1CCN(c2cnc(Oc3cccc(Br)c3)nc2)C(=O)N1 [Example 44],responders at 30 mg/kg,ICR mice [2],≥ 50%
same,inhibition in vivo at 30 mg/kg,DBA/2 mice,85%
O=C1CCN(c2cnc(Oc3ccc(Cl)cc3)nc2)C(=O)N1 [Example 40],inhibition in vivo at 30 mg/kg,DBA/2 mice,81%
"CCc1cccc(Oc2ncc(N3CCC(=O)NC3=O)cn2)c1 [Example 7, 1-[2-(3-Ethylphenoxy)pyrimidin-5-yl]-5,6-dihydropyrimidine-2,4(1H,3H)-dione]",inhibition in vivo at 30 mg/kg,DBA/2 mice,88%
O=C1CCN(c2cnc(Oc3cccc(OC(F)(F)F)c3)nc2)C(=O)N1 [Example 10],responders at 30 mg/kg,ICR mice [1],≥ 75%
same,inhibition in vivo at 30 mg/kg,DBA/2 mice,86%
COc1nc(Oc2ccccc2F)ncc1N1CCC(=O)NC1=O [Example 47],responders at 30 mg/kg,ICR mice [1],≥ 75%
same,inhibition in vivo at 30 mg/kg,DBA/2 mice,87%
"O=C1CCN(c2cnc(Oc3cccc(F)c3)nc2)C(=O)N1 [Example 3, 1-[2-(3-Fluorophenoxy)pyrimidin-5-yl]-5,6-dihydropyrimidine-2,4(1H,3H)-dione]",responders at 30 mg/kg,ICR mice [2],≥ 75%
same,responders at 30 mg/kg,ICR mice [1],≥ 75%
same,inhibition in vivo at 30 mg/kg,DBA/2 mice,100%
COc1nc(Oc2ccc(F)cc2F)ncc1N1CCC(=O)NC1=O [Example 53],inhibition in vivo at 30 mg/kg,DBA/2 mice,83%
COc1nc(Oc2cc(F)cc(F)c2)ncc1N1CCC(=O)NC1=O [Example 54],responders at 30 mg/kg,ICR mice [1],≥ 75%
same,inhibition in vivo at 30 mg/kg,DBA/2 mice,93%
Cc1cccc(Oc2ncc(N3CCC(=O)NC3=O)cn2)c1 [Example 22],responders at 30 mg/kg,ICR mice [2],≥ 75%
same,responders at 30 mg/kg,ICR mice [1],≥ 75%
same,inhibition in vivo at 30 mg/kg,DBA/2 mice,100%
O=C1CCN(c2cnc(Oc3cc(F)cc(F)c3)nc2)C(=O)N1 [Example 14],responders at 30 mg/kg,ICR mice [2],≥ 75%
same,responders at 30 mg/kg,ICR mice [1],≥ 75%
same,inhibition in vivo at 30 mg/kg,DBA/2 mice,92%
"O=C1CCN(c2cnc(Sc3ccccc3)nc2)C(=O)N1 [Example 8, 1-[2-(Phenylthio)pyrimidin-5-yl]-5,6-dihydropyrimidine-2,4(1H,3H)-dione]",responders at 30 mg/kg,ICR mice [1],≥ 75%
same,inhibition in vivo at 30 mg/kg,DBA/2 mice,100%
CC1CC(=O)NC(=O)N1c1cnc(Oc2ccccc2)nc1 (centres unmarked) [Example 16],responders at 30 mg/kg,ICR mice [1],≥ 75%
same,inhibition in vivo at 30 mg/kg,DBA/2 mice,100%
O=C1CCN(c2cnc(Oc3ccc(F)cc3)nc2)C(=O)N1 [Example 11],responders at 30 mg/kg,ICR mice [2],≥ 75%
same,responders at 30 mg/kg,ICR mice [1],≥ 50%
same,inhibition in vivo at 30 mg/kg,DBA/2 mice,97%
O=C1CCN(c2cnc(-c3ccccc3)nc2)C(=O)N1 [Example 30],responders at 30 mg/kg,ICR mice [1],≥ 75%
same,inhibition in vivo at 30 mg/kg,DBA/2 mice,97%
"O=C1CCN(c2ccccc2)C(=O)N1 [Comparative Example, reference compound]",inhibition in vivo at 30 mg/kg,DBA/2 mice,27%
"CN1C(=O)CCN(c2cnc(Oc3cccc(F)c3)nc2)C1=O [Example 5, 1-[2-(3-Fluorophenoxy)pyrimidin-5-yl]-3-methyl-5,6-dihydropyrimidine-2,4(1H,3H)-dione]",responders at 30 mg/kg,ICR mice [2],≥ 75%
same,responders at 30 mg/kg,ICR mice [1],≥ 75%
same,inhibition in vivo at 30 mg/kg,DBA/2 mice,100%
O=C1CCN(c2cnc(Oc3cccc(SC(F)(F)F)c3)nc2)C(=O)N1 [Example 23],responders at 30 mg/kg,ICR mice [2],≥ 75%
same,responders at 30 mg/kg,ICR mice [1],≥ 50%
same,inhibition in vivo at 30 mg/kg,DBA/2 mice,100%
COc1cccc(Oc2ncc(N3CCC(=O)NC3=O)cn2)c1 [Example 21],inhibition in vivo at 30 mg/kg,DBA/2 mice,93%
O=C1CCN(c2cnc(Oc3c(F)cccc3F)nc2)C(=O)N1 [Example 13],responders at 30 mg/kg,ICR mice [2],≥ 75%
same,responders at 30 mg/kg,ICR mice [1],≥ 75%
same,inhibition in vivo at 30 mg/kg,DBA/2 mice,100%
COc1nc(Oc2ccccc2)ncc1N1CCC(=O)NC1=O [Example 18],responders at 30 mg/kg,ICR mice [1],≥ 75%
same,inhibition in vivo at 30 mg/kg,DBA/2 mice,100%
C[Si](C)(C)c1cccc(Oc2ncc(N3CCC(=O)NC3=O)cn2)c1 [Example 56],responders at 30 mg/kg,ICR mice [2],≥ 50%
same,inhibition in vivo at 30 mg/kg,DBA/2 mice,82%
"O=C1CCN(c2cnc(Oc3ccccc3)nc2)C(=O)N1 [Example 1, 1-(2-Phenoxypyrimidin-5-yl)-5,6-dihydropyrimidine-2,4(1H,3H)-dione]",responders at 30 mg/kg,ICR mice [2],≥ 75%
same,responders at 30 mg/kg,ICR mice [1],≥ 75%
same,inhibition in vivo at 30 mg/kg,DBA/2 mice,100%
COc1nc(Oc2c(F)cccc2F)ncc1N1CCC(=O)NC1=O [Example 52],inhibition in vivo at 30 mg/kg,DBA/2 mice,93%
"O=C1CCN(c2cnc(Oc3ccccc3F)nc2)C(=O)N1 [Example 2, 1-[2-(2-Fluorophenoxy)pyrimidin-5-yl]-5,6-dihydropyrimidine-2,4(1H,3H)-dione]",responders at 30 mg/kg,ICR mice [2],≥ 75%
same,responders at 30 mg/kg,ICR mice [1],≥ 75%
same,inhibition in vivo at 30 mg/kg,DBA/2 mice,100%
[2H]C([2H])([2H])Oc1cccc(Oc2ncc(N3CCC(=O)NC3=O)cn2)c1 [Example 25],inhibition in vivo at 30 mg/kg,DBA/2 mice,89%
Cc1cc(C)cc(Oc2ncc(N3CCC(=O)NC3=O)cn2)c1 [Example 37],inhibition in vivo at 30 mg/kg,DBA/2 mice,77%
C#Cc1ccc(Oc2ncc(N3CCC(=O)NC3=O)cn2)cc1 [Example 50],inhibition in vivo at 30 mg/kg,DBA/2 mice,82%
"Cc1c(F)cccc1Oc1ncc(N2CCC(=O)NC2=O)cn1 [Example 6, 1-[2-(3-Fluoro-2-methylphenoxy)pyrimidin-5-yl]-5,6-dihydropyrimidine-2,4(1H,3H)-dione]",responders at 30 mg/kg,ICR mice [1],≥ 50%
same,inhibition in vivo at 30 mg/kg,DBA/2 mice,89%
O=C1CCN(c2cnc(Oc3cccc(Cl)c3)nc2)C(=O)N1 [Example 26],responders at 30 mg/kg,ICR mice [2],≥ 50%
same,responders at 30 mg/kg,ICR mice [1],≥ 75%
same,inhibition in vivo at 30 mg/kg,DBA/2 mice,100%
"O=c1ccn(-c2cnc(Oc3ccccc3)nc2)c(=O)[nH]1 [Example 4, 1-(2-Phenoxypyrimidin-5-yl)pyrimidine-2,4(1H,3H)-dione]",responders at 30 mg/kg,ICR mice [2],≥ 75%
same,responders at 30 mg/kg,ICR mice [1],≥ 50%
same,inhibition in vivo at 30 mg/kg,DBA/2 mice,100%
O=C1CCN(c2cnc(Sc3cccc(F)c3)nc2)C(=O)N1 [Example 31],responders at 30 mg/kg,ICR mice [1],≥ 75%
same,inhibition in vivo at 30 mg/kg,DBA/2 mice,79%
O=C1CCN(c2cnc(Oc3ccc(F)c(F)c3)nc2)C(=O)N1 [Example 15],inhibition in vivo at 30 mg/kg,DBA/2 mice,83%
O=C1CCN(c2cnc(Oc3cccc(-c4ccccc4)c3)nc2)C(=O)N1 [Example 45],responders at 30 mg/kg,ICR mice [1],≥ 50%
same,inhibition in vivo at 30 mg/kg,DBA/2 mice,92%
COc1nc(Oc2cccc(F)c2)ncc1N1CCC(=O)NC1=O [Example 42],responders at 30 mg/kg,ICR mice [2],≥ 50%
same,responders at 30 mg/kg,ICR mice [1],≥ 75%
same,inhibition in vivo at 30 mg/kg,DBA/2 mice,96%
O=C1CCN(c2cnc(Oc3cccc(S(F)(F)(F)(F)F)c3)nc2)C(=O)N1 [Example 24],inhibition in vivo at 30 mg/kg,DBA/2 mice,90%
Cc1ccc(F)cc1Oc1ncc(N2CCC(=O)NC2=O)cn1 [Example 38],responders at 30 mg/kg,ICR mice [1],≥ 75%
same,inhibition in vivo at 30 mg/kg,DBA/2 mice,100%
O=c1ccn(-c2cnc(Oc3cccc(F)c3)nc2)c(=O)[nH]1 [Example 41],responders at 30 mg/kg,ICR mice [2],≥ 50%
same,responders at 30 mg/kg,ICR mice [1],≥ 50%
same,inhibition in vivo at 30 mg/kg,DBA/2 mice,96%
COc1nc(Oc2ccc(F)cc2)ncc1N1CCC(=O)NC1=O [Example 48],responders at 30 mg/kg,ICR mice [1],≥ 75%
same,inhibition in vivo at 30 mg/kg,DBA/2 mice,96%
O=C1CCN(c2cnc(Oc3ccc(F)cc3F)nc2)C(=O)N1 [Example 12],responders at 30 mg/kg,ICR mice [2],≥ 50%
same,responders at 30 mg/kg,ICR mice [1],≥ 75%
same,inhibition in vivo at 30 mg/kg,DBA/2 mice,96%
C#Cc1cccc(Oc2ncc(N3CCC(=O)NC3=O)cn2)c1 [Example 28],responders at 30 mg/kg,ICR mice [2],≥ 75%
same,responders at 30 mg/kg,ICR mice [1],≥ 75%
same,inhibition in vivo at 30 mg/kg,DBA/2 mice,100%
